Measurements: patent US8163921B2, “Hepatitis C virus inhibitors” (Bristol-Myers Squibb Company, priority 2008, dated 2012)

Experiments:
[1] = target: T1, HCV NS3/4A protease complex, H77 strain (Hepatitis C virus genotype 1a, UniProt P27958, C1454S/C1711G); experiment: FRET peptide assay to monitor HCV NS3/4A proteolytic activity (H77 strain); assay type: biochemical, HCV genotype 1a; settings: read-out: IC50, H177 strain
T1 construct: DNA encoding the recombinant HCV NS3/4A protease complex (amino acids 1027 to 1711) for these strains; inferred from Ni-NTA purification and the pET21b vector; made in house; host or cells: Escherichia coli BL21 (DE3)
From the text: (§1) HCV NS3 protease complexes, derived from the BMS strain, H77 strain or J4L6S strain, were generated, as described below. These purified recombinant proteins were generated for use in a homogeneous assay (see below) to provide an indication of how effective compounds of the present disclosure would be in inhibiting HCV NS3 proteolytic activity.
(§2) Serum from an HCV-infected patient was obtained from Dr. T. Wright, San Francisco Hospital. An engineered full-length cDNA (compliment deoxyribonucleic acid) template of the HCV genome (BMS strain) was constructed from DNA fragments obtained by reverse transcription-PCR (RT-PCR) of serum RNA (ribonucleic acid) and using primers selected on the basis of homology between other genotype 1a strains. From the determination of the entire genome sequence, a genotype 1a was assigned to the HCV isolate according to the classification of Simmonds et al. (See P Simmonds, K A Rose, S Graham, S W Chan, F McOmish, B C Dow, E A Follett, P L Yap and H Marsden, J. Clin. Microbiol., 31(6), 1493-1503 (1993)). […]

[2] = target: T2, HCV NS3/4A protease complex, J4L6S strain (Hepatitis C virus genotype 1b, UniProt O92972, C1454S/C1711G); experiment: FRET peptide assay to monitor HCV NS3/4A proteolytic activity (J4L6S strain); assay type: biochemical, HCV genotype 1b; settings: published J4L6S strain
T2 construct: DNA encoding the recombinant HCV NS3/4A protease complex (amino acids 1027 to 1711) for these strains; inferred from Ni-NTA purification and the pET21b vector; made in house; host or cells: Escherichia coli BL21 (DE3)
From the text: as §1, §2

[3] = target: T3, human neutrophil elastase (HNE) (Homo sapiens, UniProt P08246); experiment: Specificity assay, elastase (HNE); assay type: biochemical; settings: read-out: HLE activity in the specificity assays
T3 construct: purchased Sigma, EMDbiosciences
T3 sequence (P08246 30-247 limits assumed): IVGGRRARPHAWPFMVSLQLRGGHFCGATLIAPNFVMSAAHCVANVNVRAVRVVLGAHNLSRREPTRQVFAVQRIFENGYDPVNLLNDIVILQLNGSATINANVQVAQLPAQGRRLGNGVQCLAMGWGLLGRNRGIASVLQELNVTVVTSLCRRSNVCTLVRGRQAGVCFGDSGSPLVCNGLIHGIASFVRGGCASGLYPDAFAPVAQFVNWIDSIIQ
Method: The specificities of compounds of the present disclosure were determined against a variety of serine proteases: human neutrophil elastase (HNE), porcine pancreatic elastase (PPE) and human pancreatic chymotrypsin and one cysteine protease: human liver cathepsin B. In all cases a 96-well plate format protocol using a fluorometric Amino-Methyl-Coumarin (AMC) substrate specific for each enzyme was used as described previously (PCT Patent Application No. WO 00/09543) with some modifications to the serine protease assays. All enzymes were purchased from Sigma, EMDbiosciences while the substrates were from Bachem, Sigma and EMDbiosciences.
Compound concentrations varied from 100 to 0.4 μM depending on their potency. The enzyme assays were each initiated by addition of substrate to enzyme-inhibitor pre-incubated for 10 min at room temperature and hydrolysis to 15% conversion as measured on cytofluor.
50 mM Tris-HCl, pH 8.0, 50 mM NaCl, 0.1 mM EDTA, 3% DMSO, 0.02% Tween-20, 5 μM succ-AAPV-AMC and 20 nM HNE or 8 nM PPE;
The percentage of inhibition was calculated using the formula: [1−((UVinh−UVblank)/(UVctl−UVblank))]×100
A non-linear curve fit was applied to the inhibition-concentration data, and the 50% effective concentration (IC50) was calculated by the use of Excel XLfit software.

T2 sequence (O92972 1027-1711 C1454S/C1711G, one chain of several): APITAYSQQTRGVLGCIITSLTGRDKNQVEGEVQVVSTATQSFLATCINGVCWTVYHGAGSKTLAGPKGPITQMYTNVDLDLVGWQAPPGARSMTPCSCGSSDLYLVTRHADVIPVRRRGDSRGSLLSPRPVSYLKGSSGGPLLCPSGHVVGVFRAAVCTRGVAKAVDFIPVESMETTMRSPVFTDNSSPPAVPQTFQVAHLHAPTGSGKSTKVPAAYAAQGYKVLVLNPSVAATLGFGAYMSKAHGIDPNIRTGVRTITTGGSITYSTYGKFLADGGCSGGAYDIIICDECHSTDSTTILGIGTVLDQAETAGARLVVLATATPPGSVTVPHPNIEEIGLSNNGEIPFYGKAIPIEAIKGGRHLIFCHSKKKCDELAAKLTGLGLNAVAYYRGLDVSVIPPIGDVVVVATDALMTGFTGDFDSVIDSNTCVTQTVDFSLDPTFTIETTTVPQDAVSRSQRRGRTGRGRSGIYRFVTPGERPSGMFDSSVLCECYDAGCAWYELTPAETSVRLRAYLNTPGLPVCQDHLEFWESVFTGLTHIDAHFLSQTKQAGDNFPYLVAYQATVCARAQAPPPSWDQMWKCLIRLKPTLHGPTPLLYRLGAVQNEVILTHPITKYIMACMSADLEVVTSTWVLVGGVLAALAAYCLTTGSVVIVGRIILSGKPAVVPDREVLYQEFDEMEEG
T1 sequence (P27958 1027-1711 C1454S/C1711G, one chain of several): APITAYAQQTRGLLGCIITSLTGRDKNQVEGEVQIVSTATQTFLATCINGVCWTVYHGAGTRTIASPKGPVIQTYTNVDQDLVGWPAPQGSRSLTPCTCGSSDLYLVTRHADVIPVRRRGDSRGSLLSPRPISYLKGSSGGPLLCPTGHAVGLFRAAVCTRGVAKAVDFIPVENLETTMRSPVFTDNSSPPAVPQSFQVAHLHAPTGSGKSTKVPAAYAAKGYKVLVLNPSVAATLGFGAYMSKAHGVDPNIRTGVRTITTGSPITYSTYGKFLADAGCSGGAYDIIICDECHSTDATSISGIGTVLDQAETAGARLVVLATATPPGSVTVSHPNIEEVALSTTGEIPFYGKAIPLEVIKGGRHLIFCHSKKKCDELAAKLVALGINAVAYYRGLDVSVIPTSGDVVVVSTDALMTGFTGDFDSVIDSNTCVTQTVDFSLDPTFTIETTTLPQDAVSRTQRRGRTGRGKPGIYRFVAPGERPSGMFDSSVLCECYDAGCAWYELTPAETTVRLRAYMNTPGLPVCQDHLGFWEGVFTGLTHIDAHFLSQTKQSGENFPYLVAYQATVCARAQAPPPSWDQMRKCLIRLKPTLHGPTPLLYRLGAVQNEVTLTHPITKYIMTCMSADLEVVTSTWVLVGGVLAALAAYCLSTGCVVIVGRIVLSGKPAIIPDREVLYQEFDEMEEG

C=C[C@@H]1C[C@]1(NC(=O)[C@@H]1C[C@@H](Oc2ncc(OC)c3ccc(Cl)cc23)CN1C(=O)[C@@H](Nc1nc(-c2cccc(OC(F)(F)F)c2)cs1)C(C)(C)C)C(=O)NS(=O)(=O)C1CC1 [Example 68]
IC50 [1]: 1.9 nM | IC50 [2]: 0.9 nM | IC50 [3]: > 50000 nM
